Series [1] deals with SARS-CoV-2. Briefly: microbe, parasite or virus in culture. The series is classed as cell-based. The note with it: for EC50: Severe acute respiratory syndrome coronavirus 2, Vero, 48 h, read-out: EC50 (95% CI).
The subject of series [2] is SARS-CoV-2. Put plainly: microbe, parasite or virus in culture. The series is classed as cell-based.
The nature of series [3]: in vitro. The settings on record: African green monkey.
The nature of series [4]: in vitro. The settings on record: human.
Series [5] relates to Vero cells. The settings on record: African green monkey.
Series [6] relates to A549/ACE2 cells.
For series [7] the following is noted: in vivo; cited from earlier work.
Series [8] deals with MERS-CoV. Put plainly: microbe, parasite or virus in culture. The series is classed as cell-based. The note with it: Middle East respiratory syndrome-related coronavirus, Vero, 48 h, read-out: EC50 (95% CI).

Read-outs that look alike come from different tables or passages of the source.

The term EC50 denotes the concentration that produces a half-maximal response. As for `C[C@H]1COc2c(N3CCN(C)CC3)c(F)cc3c(=O)c(C(=O)O)cn1c23` [Levofloxacin, levofloxacin], the EC50 in series [1] turned out to be 419 µM. Also, the “Decrease in mean SARS-CoV-2 titer compared to the control” value in series [2] is 1.4 log. The CC50 in series [3] and in series [4] was over 600 µM each time.
For the compound `COc1c(N2C[C@@H]3CCCN[C@@H]3C2)c(F)cc2c(=O)c(C(=O)O)cn(C3CC3)c12` [Moxifloxacin, moxifloxacin], in series [1], the “SARS-CoV-2 titer after treatment (in words)” value (from here on “SARS-CoV-2 titer … (in words)”) was “below the level of detection” and the half-maximal effective concentration (EC50) is 240 µM. In series [2], the “Decrease in mean SARS-CoV-2 titer compared to the control” value amounted to 2.2 log and the “SARS-CoV-2 titer … (in words)” value is “below the level of detection”. In series [5], the “Concentration at which cellular toxicity was observed” value is at least 300 µM. Besides, the “Concentration at which cellular toxicity was detected” value in series [6] (human) is at least 300 µM. The same compound returned a CC50 in series [3] of over 600 µM. Moreover, in series [4], the CC50 is over 600 µM. Besides, the “Peak human serum concentration” value in series [7] was 8.6 µM.
Turning to `O=C(O)c1cn(C2CC2)c2cc(N3CCNCC3)c(F)cc2c1=O` [Ciprofloxacin, ciprofloxacin], in series [1], the “SARS-CoV-2 titer … (in words)” value is given as “below the level of detection” and the EC50 came out at 247 µM. Besides, the “Peak human serum concentration” value in series [7] was 7.2 µM.
For `CCn1cc(C(=O)O)c(=O)c2cc(F)c(N3CCNCC3)nc21` [Enoxacin, enoxacin], the EC50 was determined as 126 µM in series [1]; 227 µM in series [2] (Severe acute respiratory syndrome coronavirus 2, A549-ACE2, 48 h, read-out: EC50 (95% CI)); 343 µM in series [8]. Also, the “Concentration at which cellular toxicity was observed” value in series [5] is at least 37.5 µM. The “Cellular viability / toxicity compared to the media control (in words)” value in series [6] is “not different from the media control”. Further, the CC50 in series [3] and in series [4] was over 600 µM throughout. In addition, the “Peak human serum concentration” value in series [7] was 11.2 µM.
In the case of `O=C(Nc1ccc([N+](=O)[O-])cc1Cl)c1cc(Cl)ccc1O` [niclosamide], the “SARS-CoV-2 replication after treatment (in words)” value in series [1] and in series [2] was “below the level of detection” in each case.

(Values after PMC7822115 (Viruses, 2020).)
